Laboratory results reported in patent US12186424B2, “Compositions and methods for treating pterygium recurrence” (Cloudbreak Therapeutics, LLC, priority 2015, dated 2025).
“Also recorded” adds a separate entry of the source.

Key:
Src = Src (Homo sapiens, UniProt P12931); details: sources as Table 1 footnote; cited from earlier work
[1] = system: human pterygium epithelial cells (hPECs); assay: Human pterygium mouse model, corneal pterygium lesion size; details: vs day 7 baseline; 0.2% nintedanib, 0.05% sunitinib, 0.002% mitomycin or combination
[2] = system: corneal neovascularization (NV); assay: Human pterygium mouse model, corneal neovascularization score; assay type: in vivo, athymic nude mice; details: vs day 7 baseline, score 0 through 3, 0.2% nintedanib, 0.05% sunitinib, 0.002% mitomycin or combination
[3] = rabbit, in vivo
[4] = system: suture-induced neovascularization in the rabbit cornea; assay: Rabbit cornea suture model of neovascularization; assay type: in vivo
Procedure: The rabbit cornea suture model was established to assess drug effects on cornea neovascularization (Ko et al. Cornea. 2013; 32(5): 689-695; Perez-Santonj a et al. Am J Ophthalmol. 2010; 150(4):519-528). […] Thirty six female Zealand White rabbits were used to perform the study. […] The animals were treated in both eyes as described in Table 4. [table] During the study, the animals were closely observed for various ocular indications as well as general physical conditions including body weight. […] NIH ImageJ® software was used to analyze the ocular images. Each image was opened in ImageJ®, the scale was calibrated using the ruler in the photograph and the neovascularized area on the cornea near the suture was selected by the selection tool. […] The results were plotted as histograms of average with standard deviation for easy comparison.

[5] = rabbits with corneal sutures dosed with sunitinib for 7 days (Perez-Santonja 2010); cited from earlier work
[6] = 0.05% BID topical, Day 10 (after 2 days of treatment)
[7] = 0.05% BID topical, Day 12 (after 4 days of treatment)
[8] = 0.05% BID topical, Day 14 (after 6 days of treatment)
[9] = 0.05% TID topical, Day 10 (after 2 days of treatment)
[10] = 0.05% TID topical, Day 12 (after 4 days of treatment)
[11] = 0.05% TID topical, Day 14 (after 6 days of treatment)
[12] = 0.2% BID topical, Day 10 (after 2 days of treatment)
[13] = 0.2% BID topical, Day 12 (after 4 days of treatment)
[14] = 0.2% BID topical, Day 14 (after 6 days of treatment)
[15] = 0.2% TID topical, Day 10 (after 2 days of treatment)
[16] = 0.2% TID topical, Day 12 (after 4 days of treatment)
[17] = 0.2% TID topical, Day 14 (after 6 days of treatment)

Sequence of Src (P12931 whole entry, species assumed): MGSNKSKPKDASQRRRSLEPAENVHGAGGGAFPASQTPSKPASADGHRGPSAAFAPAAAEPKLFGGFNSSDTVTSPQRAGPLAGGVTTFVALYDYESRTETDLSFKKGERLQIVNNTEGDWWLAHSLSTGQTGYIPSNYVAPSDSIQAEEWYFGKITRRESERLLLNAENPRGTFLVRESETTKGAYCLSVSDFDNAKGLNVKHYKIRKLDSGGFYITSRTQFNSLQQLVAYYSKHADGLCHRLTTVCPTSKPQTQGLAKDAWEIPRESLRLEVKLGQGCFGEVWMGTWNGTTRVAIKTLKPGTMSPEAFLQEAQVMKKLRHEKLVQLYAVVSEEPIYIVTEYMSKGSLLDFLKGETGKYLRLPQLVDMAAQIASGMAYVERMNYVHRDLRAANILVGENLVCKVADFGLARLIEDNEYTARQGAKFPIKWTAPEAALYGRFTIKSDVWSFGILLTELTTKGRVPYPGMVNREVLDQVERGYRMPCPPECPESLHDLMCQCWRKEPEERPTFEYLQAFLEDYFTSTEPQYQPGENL

SMILES: COc1cc2c(Oc3ccc4[nH]c(C)cc4c3F)ncnc2cc1OCCCN1CCCC1 [Cediranib]
- IC50 (Src): 130 nM

SMILES: CO[C@@]12[C@H](COC(N)=O)C3=C(C(=O)C(C)=C(N)C3=O)N1C[C@@H]1N[C@@H]12 [MMC]
- Effect on pterygium lesion area on mouse cornea (in words) [1]: showed a trend of reduction in pterygium areas but didn't reach statistical significance at any of the time points; also recorded: showed a trend of reduction of pterygium lesion area but the differences at each time points from the day 7 baseline are not statistically significant
- Effect on corneal neovascularization score (in words) ([2]; listed as Mitomycin): reduced neovascularization score, with significant reductions on day 17
- Effect on corneal neovascularization score (in words) ([2]; listed as mitomycin): reduced the neovascularization on cornea and the reduction was significant comparing levels on day 17 vs the baseline on day 7

SMILES: COC(=O)c1ccc2c(c1)NC(=O)/C2=C(\Nc1ccc(N(C)C(=O)CN2CCN(C)CC2)cc1)c1ccccc1 [Nintedanib, Methyl (3Z)-3-{[(4-{methyl[(4-methylpiperazin-1-yl)acetyl]amino}phenyl)amino] (phenyl)methylidene}-2-oxo-2,3-dihydro-1H-indole-6-carboxylate]
- Effect on pterygium lesion area on mouse cornea (in words) [1]: led to a reduction of the pterygium area on day 14 and day 17 in comparison to the baseline level on day 7; also recorded: reduced pterygium lesion area on mouse cornea
- Potential toxicity: abnormal lens with incomplete lenticular opacity [3]: none was observed
- Neovascular Area [4, 6]: 5.97 mm^2
- Neovascular Area Mean Percent Change over Day 7 Baseline (− sign indicates decrease) [4, 6]: 64.08%
- Neovascular Area [4, 7]: 5.03 mm^2
- Neovascular Area Mean Percent Change over Day 7 Baseline (− sign indicates decrease) [4, 7]: 45.56%
- Neovascular Area [4, 8]: 7.20 mm^2
- Neovascular Area Mean Percent Change over Day 7 Baseline (− sign indicates decrease) [4, 8]: 99.48%
- Neovascular Area [4, 9]: 3.23 mm^2
- Neovascular Area Mean Percent Change over Day 7 Baseline (− sign indicates decrease) [4, 9]: 1.99%
- Neovascular Area [4, 10]: 2.14 mm^2
- Neovascular Area Mean Percent Change over Day 7 Baseline (− sign indicates decrease) [4, 10]: −27.87%
- Neovascular Area [4, 11]: 4.01 mm^2
- Neovascular Area Mean Percent Change over Day 7 Baseline (− sign indicates decrease) [4, 11]: 32.66%
- Neovascular Area [4, 12]: 3.32 mm^2
- Neovascular Area Mean Percent Change over Day 7 Baseline (− sign indicates decrease) [4, 12]: 12.09%
- Neovascular Area [4, 13]: 4.15 mm^2
- Neovascular Area Mean Percent Change over Day 7 Baseline (− sign indicates decrease) [4, 13]: 37.15%
- Neovascular Area [4, 14]: 5.44 mm^2
- Neovascular Area Mean Percent Change over Day 7 Baseline (− sign indicates decrease) [4, 14]: 73.51%
- Neovascular Area [4, 15]: 2.48 mm^2
- Neovascular Area Mean Percent Change over Day 7 Baseline (− sign indicates decrease) [4, 15]: −16.84%
- Neovascular Area [4, 16]: 2.56 mm^2
- Neovascular Area Mean Percent Change over Day 7 Baseline (− sign indicates decrease) [4, 16]: −13.80%
- Neovascular Area [4, 17]: 2.88 mm^2
- Neovascular Area Mean Percent Change over Day 7 Baseline (− sign indicates decrease) [4, 17]: −1.51%
- Effect on suture-induced neovascularization in the rabbit cornea (in words) ([4]; 0.2% or 0.05% topical, BID or TID, days 8 to 15): marked inhibitory effect on suture-induced neovascularization in the rabbit cornea
- Effect on corneal neovascularization score (in words) [2]: reduced neovascularization score on the cornea during the treatments with the level on day 17 showing a significant difference from the baseline on day 7
- Effect on corneal neovascularization score (in words) ([2]; listed as nintedanib): reduced the neovascularization on cornea and the reduction was significant comparing levels on day 17 vs the baseline on day 7

SMILES: CCN(CC)CCNC(=O)c1c(C)[nH]c(/C=C2\C(=O)Nc3ccc(F)cc32)c1C [Sunitinib]
- Potential toxicity: abnormal lens with incomplete lenticular opacity [3]: abnormal lens with incomplete lenticular opacity was observed in one rabbit
- Anterior chamber cellular reaction [5]: an anterior chamber cellular reaction was observed on day 1
- Iris surface staining (drug deposits) [5]: Iris surface yellowish staining, which represents sunitinib deposits on the iris surface was observed during the whole dosing period
- Neovascular Area [4, 9]: 3.58 mm^2
- Neovascular Area Mean Percent Change over Day 7 Baseline (− sign indicates decrease) [4, 9]: 10.80%
- Neovascular Area [4, 10]: 4.62 mm^2
- Neovascular Area Mean Percent Change over Day 7 Baseline (− sign indicates decrease) [4, 10]: 49.72%
- Neovascular Area [4, 11]: 5.96 mm^2
- Neovascular Area Mean Percent Change over Day 7 Baseline (− sign indicates decrease) [4, 11]: 98.38%
